{"source": "paper PMC6453670", "about": "(International Journal for Parasitology: Drugs and Drug …, 2019)", "origin": "cited, not measured here", "key": {"Toxoplasma": {"tested_on": "Toxoplasma", "conditions": "longer treatment duration; ref Winzer et al., 2015"}, "Neospora": {"tested_on": "Neospora", "conditions": "longer treatment duration; ref Ojo et al., 2014; Winzer et al., 2015"}}}
{"smiles": "CCOc1ccc2cc(-c3nn(CC4CCN(C)CC4)c4ncnc(N)c34)ccc2c1", "note": "[BKI 1294]", "values": [{"measurement": "Dose at which morphological alterations were seen in vitro", "setting": "Toxoplasma", "result": 2.5, "unit": "μM"}, {"measurement": "Dose at which morphological alterations were seen in vitro", "setting": "Neospora", "result": 2.5, "unit": "μM"}]}
